Measurements taken from patent US4390540A, “Imidazoquinazolines having pharmaceutical activity” (Hoffmann-La Roche Inc., priority 1980, dated 1983).
Like-named read-outs stand apart in the source and are kept apart here.

Key:
[1] = tested on: left ventricular pressure (LVP); assay: Positive inotropic activity (dLVP/dtmax) in conscious sheep dogs; type: in vivo; conditions: oral; for change in vivo at 3 mg/kg / change in vivo at 1 mg/kg / change in vivo at 10 mg/kg: Canis lupus familiaris, read-out: Inotropy Δ% (percentage variation of dLVP/dtmax)
Procedure: (§1) The positive inotropic activity was measured after the oral administration of the test substances to conscious sheep dogs. For this purpose, the animals are provided with an implanted pressure-telemetry system, whereby the pressure receiver is fixed in the left ventricle. The left ventricular pressure is sent from the animal via the implanted radio transmitter and received via a suitable antenna and receiving system, demodulated and amplified. By differentiation of the ascending side of the left ventricular pressure (LVP), there is calculated the maximum pressure increase rate (dLVP/dtmax) which represents the contractility parameter. Simultaneously, the heart frequency is recorded via a cardiotachograph. Under inotropy there are indicated the percentage variation (Δ%) of dLVP/dtmax and the duration of activity in hours (Hrs.). Under tachycardia there are indicated the percentage variations of the heart frequency (Δ%) after administration of the test substance and the duration of activity in hours (Hrs.).

heart frequency = assay: Heart frequency (tachycardia) in conscious sheep dogs; type: in vivo; conditions: oral
Procedure: as §1

gastric acid secretion = assay: Gastric acid secretion inhibition in pylorus-ligated rats (Shay); type: in vivo; conditions: Rattus norvegicus, intraduodenally, female rats, 4 hours
Procedure: The experimental procedure described hereinafter was used to determine the gastric acid secretion-inhibiting activity. More specifically, the pylorus of female rats, which had received no food for 24 hours, but which had received water ad libitum, is ligatured under slight ether narcosis in accordance with Shay et al. [Gastroenterology 5, 43 (1945)]. Immediately thereafter the substance to be tested is administered intraduodenally to the animals. Four hous later the animals are killed, the volume and the acidity of their gastric juice are determined and the values obtained are compared with those of control animals which were treated similarly, but which received no test substance. The ED 50 is that dosage of test substance which brings about a 50% decrease in volume (ED 50 volume) or acidity (ED 50 acidity) of the gastric juice in the treated animals compared with the control animals.

[2] = tested on: Human platelet-rich plasma; assay: Collagen-induced blood platelet aggregation (aggregometer method of Born); type: cell-based; conditions: 10 min; human platelet-rich citrate plasma, 37° C., 10 minutes incubation, collagen fibrils; read-out: EC50 (collagen-induced blood platelet aggregation, maximum aggregation velocity)
Procedure: The maximum aggregation velocity was taken as the test parameter, and the effective concentration (EC50) was ascertained from dosage-activity curves. Human platelet-rich plasma was obtained by centrifugation from citrated venous blood. The experiments were carried out with suspensions of the test substances in 0.9% sodium chloride. 0.18 ml of citrate plasma was treated with a 10 μl suspension of the test compounds and incubated at 37° C. for 10 minutes, whereupon the aggregation was initiated by the addition of 10 μl of a suspension of collagen fibrils.

Row | Heart frequency Hrs. (duration of activity) (heart frequency; 3 mg/kg) | Heart frequency Δ% (percentage variation) (heart frequency; 3 mg/kg) | Heart frequency Hrs. (duration of activity) (heart frequency; 1 mg/kg) | Heart frequency Δ% (percentage variation) (heart frequency; 1 mg/kg) | Heart frequency Hrs. (duration of activity) (heart frequency; 10 mg/kg) | Heart frequency Δ% (percentage variation) (heart frequency; 10 mg/kg) | EC50 [2] | SMILES | Inotropy Hrs (duration of activity) ([1]; 3 mg/kg) | change in vivo at 3 mg/kg ([1]; 3 mg/kg) | Inotropy Hrs (duration of activity) ([1]; 1 mg/kg) | change in vivo at 1 mg/kg ([1]; 1 mg/kg) | Inotropy Hrs (duration of activity) ([1]; 10 mg/kg) | change in vivo at 10 mg/kg ([1]; 10 mg/kg) | ED50 (gastric acid secretion; read-out: ED 50 acidity (50% decrease in acidity of the gastric juice)) | ED50 (gastric acid secretion; read-out: ED 50 volume (50% decrease in volume of the gastric juice))
1 | 2.5 h | +4% |  |  |  |  |  | Cl.O=C1CN2C(=N1)NCc1ccccc12 [4,5-dihydroimidazo[1,2-a]quinazolin-2(1H)-one hydrochloride] | 4 h | 79% |  |  |  |  |  | 
2 | 8 h | +16% |  |  |  |  |  | CC1C(=O)N=C2NCc3c(ccc(Cl)c3Cl)N21.Cl (stereo not shown) [6,7-dichloro-1-methyl-4,5-dihydroimidazo[1,2-a]quinazolin-2(1H)-one hydrochloride] | 8 h | 48% |  |  |  |  |  | 
3 |  |  | 7 h | +22% |  |  |  | Cl.O=C1CN2C(=N1)NCc1c2ccc(Cl)c1Cl [6,7-dichloro-4,5-dihydroimidazo[1,2-a]quinazolin-2(1H)-one hydrochloride] |  |  | 7.5 h | 44% |  |  |  | 
4 |  |  |  |  | 6 h | +3% |  | Cc1ccc2c(c1C)CNC1=NC(=O)CN12.Cl [6,7-dimethyl-4,5-dihydroimidazo[1,2-a]quinazolin-2(1H)-one hydrochloride] |  |  |  |  | 6 h | 18% |  | 
5 |  |  |  |  | 6 h | +77% | 12.3 µM | Cl.O=C1CN2C(=N1)NCc1c(Cl)cccc12 [6-chloro-4,5-dihydroimidazo[1,2-a]quinazolin-2(1H)-one hydrochloride] |  |  |  |  | 7 h | 78% | 10 mg/kg | 15 mg/kg
6 | 6 h | +20% | 5 h | +47% | 7 h | +45% |  | COc1ccc2c(c1Cl)CNC1=NC(=O)CN12.Cl [6-chloro-7-methoxy-4,5-dihydroimidazo[1,2-a]quinazolin-2(1H)-one hydrochloride] | 7 h | 32% | 1 h | 10% | 7 h | 60% |  | 
7 | 5 h | -12% | 3.5 h | -7% |  |  |  | Cc1cccc2c1CNC1=NC(=O)CN12.Cl [6-methyl-4,5-dihydroimidazo[1,2-a]quinazolin-2(1H)-one hydrochloride] | 4.5 h | 32% | 2 h | 15% |  |  |  | 
8 | 4 h | 0% | 4 h | +10% | 8 h | +59% | 35 µM | Cc1c(Br)ccc2c1CNC1=NC(=O)CN12.Cl [7-bromo-6-methyl-4,5-dihydroimidazo[1,2-a]quinazolin-2(1H)-one hydrochloride] | 5.5 h | 16% | 2.5 h | 8% | 8 h | 120% |  | 
9 |  |  |  |  | 3 h | +13% |  | Cl.O=C1CN2C(=N1)NCc1cc(Cl)ccc12 [7-chloro-4,5-dihydroimidazo[1,2-a]quinazolin-2(1H)-one hydrochloride] |  |  |  |  | 3.5 h | 17% |  | 
10 | 3 h | +6% | 5 h | +4% | 6 h | +31% |  | Cc1c(Cl)ccc2c1CNC1=NC(=O)CN12.Cl [7-chloro-6-methyl-4,5-dihydroimidazo[1,2-a]quinazolin-2(1H)-one hydrochloride] | 1 h | 7% | 6 h | 27% | 6 h | 50% |  | 
11 |  |  |  |  | 6.5 h | +50% |  | COc1ccc2c(c1)CNC1=NC(=O)CN12.Cl [7-methoxy-4,5-dihydroimidazo[1,2-a]quinazolin-2(1H)-one hydrochloride] |  |  |  |  | 7 h | 67% |  | 
12 | 1 h | +6% |  |  |  |  |  | Cc1ccc2c(c1)CNC1=NC(=O)CN12.Cl [7-methyl-4,5-dihydroimidazo[1,2-a]quinazolin-2(1H)-one hydrochloride] | 2 h | 33% |  |  |  |  |  | 
13 | 6 h | -8% | 5.5 h | -19% |  |  |  | Cc1cccc2c1N1CC(=O)N=C1NC2.Cl [9-methyl-4,5-dihydroimidazo[1,2-a]quinazolin-2(1H)-one hydrochloride] | 6.5 h | 18% | 2.5 h | 27% |  |  |  | 
